Assay results as given in ChEMBL document CHEMBL1201862, “PubChem BioAssay data set” (2004).
Calls of active or inactive are those of the source.

Assays:
[1] = molecular target: Serine/threonine-protein phosphatase (Homo sapiens, UniProt Q9BPW0); experiment: PP5 phosphatase inhibitors, dose response, biochemical, fluorescence (AID 2395)
[2] = molecular target: T1, Heat shock factor protein 1 (Mus musculus, UniProt P38532); experiment: inhibition of MG132-induced HSE-luciferase signal, confirmation, cell-based, NIH3T3, luminescence, dose retest (AID 2382); type: functional;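 also: NIH3T3 fibroblasts with HSF1-driven luciferase reporter stressed by proteasome inhibitor MG132; luminescence from HSF1-driven luciferase expression after 8 hours of MG132 stress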
T1 sequence (P38532 whole entry): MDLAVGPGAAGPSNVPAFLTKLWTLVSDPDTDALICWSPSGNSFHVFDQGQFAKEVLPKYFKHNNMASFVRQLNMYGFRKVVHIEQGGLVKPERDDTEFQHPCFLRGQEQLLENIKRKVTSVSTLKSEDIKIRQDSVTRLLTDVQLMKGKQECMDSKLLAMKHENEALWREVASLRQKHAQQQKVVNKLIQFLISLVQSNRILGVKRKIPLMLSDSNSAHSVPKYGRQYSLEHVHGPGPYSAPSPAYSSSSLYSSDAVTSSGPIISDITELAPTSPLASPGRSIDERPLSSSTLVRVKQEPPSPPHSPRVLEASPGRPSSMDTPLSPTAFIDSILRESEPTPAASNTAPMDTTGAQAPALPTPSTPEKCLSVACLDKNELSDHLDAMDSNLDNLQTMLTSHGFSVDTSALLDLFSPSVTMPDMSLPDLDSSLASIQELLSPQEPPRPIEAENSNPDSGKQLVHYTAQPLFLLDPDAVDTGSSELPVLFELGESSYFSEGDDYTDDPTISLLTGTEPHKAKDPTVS

Genome polyprotein = Genome polyprotein (dengue virus type 2, UniProt P29990); experiment: Dengue-2 NS5 methyltransferase inhibitors, primary screen, biochemical, confirmation dose response (AID 588689); type: functional
Vero = Vero cell cytotoxicity, cytotoxicity control for flavivirus capping enzyme inhibitors (AID 588742); type: functional; settings: Chlorocebus sabaeus
SUMO-activating enzyme = SUMO-activating enzyme (Homo sapiens, UniProt Q9UBT2); experiment: inhibitors of in vitro SUMOylation cascade, primary screen, biochemical, HTRF, uHTS (AID 2006); type: protein-complex assay
[3] = molecular target: Serine/threonine-protein kinase PLK3 (Homo sapiens, UniProt Q9H4B4); type: functional
[4] = molecular target: Cyclin-dependent kinase 8 (Homo sapiens, UniProt P49336); experiment: Navigating the Kinome. Panel member name: CDK8; type: functional
[5] = molecular target: Tyrosine-protein kinase Srms (Homo sapiens, UniProt Q9H3Y6); type: functional;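 also: SRMS measured as one member of a kinome-wide kinase profiling panel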
[6] = molecular target: G protein-coupled receptor kinase 5 (Homo sapiens, UniProt P34947); experiment: Navigating the Kinome. Panel member name: GPRK5; type: functional
Sequence of G protein-coupled receptor kinase 5 (P34947 whole entry): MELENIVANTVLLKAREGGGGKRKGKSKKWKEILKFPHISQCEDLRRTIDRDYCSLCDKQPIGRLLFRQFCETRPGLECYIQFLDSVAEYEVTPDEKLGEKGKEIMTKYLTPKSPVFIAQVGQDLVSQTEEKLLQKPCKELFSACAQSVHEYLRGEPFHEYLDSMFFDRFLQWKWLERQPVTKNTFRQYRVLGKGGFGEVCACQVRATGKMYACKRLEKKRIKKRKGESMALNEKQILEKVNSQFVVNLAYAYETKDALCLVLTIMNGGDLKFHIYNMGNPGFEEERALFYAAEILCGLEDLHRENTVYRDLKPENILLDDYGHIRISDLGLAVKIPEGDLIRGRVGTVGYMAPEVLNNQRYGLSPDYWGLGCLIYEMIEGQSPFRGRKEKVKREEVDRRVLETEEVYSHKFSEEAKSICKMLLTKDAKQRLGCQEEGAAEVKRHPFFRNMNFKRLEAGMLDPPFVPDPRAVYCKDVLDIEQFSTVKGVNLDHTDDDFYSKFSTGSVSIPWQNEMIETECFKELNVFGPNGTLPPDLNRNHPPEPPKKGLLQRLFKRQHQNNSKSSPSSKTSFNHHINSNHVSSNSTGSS

[7] = molecular target: Serine/threonine-protein kinase 3 (Homo sapiens, UniProt Q13188); type: functional;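 also: measured as one member of a kinome-wide kinase panel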
[8] = molecular target: Receptor-type tyrosine-protein kinase FLT3 (Homo sapiens, UniProt P36888); type: functional;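 also: FLT3 was tested as one member of a kinome-wide kinase panel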
Sequence of Receptor-type tyrosine-protein kinase FLT3 (P36888 whole entry): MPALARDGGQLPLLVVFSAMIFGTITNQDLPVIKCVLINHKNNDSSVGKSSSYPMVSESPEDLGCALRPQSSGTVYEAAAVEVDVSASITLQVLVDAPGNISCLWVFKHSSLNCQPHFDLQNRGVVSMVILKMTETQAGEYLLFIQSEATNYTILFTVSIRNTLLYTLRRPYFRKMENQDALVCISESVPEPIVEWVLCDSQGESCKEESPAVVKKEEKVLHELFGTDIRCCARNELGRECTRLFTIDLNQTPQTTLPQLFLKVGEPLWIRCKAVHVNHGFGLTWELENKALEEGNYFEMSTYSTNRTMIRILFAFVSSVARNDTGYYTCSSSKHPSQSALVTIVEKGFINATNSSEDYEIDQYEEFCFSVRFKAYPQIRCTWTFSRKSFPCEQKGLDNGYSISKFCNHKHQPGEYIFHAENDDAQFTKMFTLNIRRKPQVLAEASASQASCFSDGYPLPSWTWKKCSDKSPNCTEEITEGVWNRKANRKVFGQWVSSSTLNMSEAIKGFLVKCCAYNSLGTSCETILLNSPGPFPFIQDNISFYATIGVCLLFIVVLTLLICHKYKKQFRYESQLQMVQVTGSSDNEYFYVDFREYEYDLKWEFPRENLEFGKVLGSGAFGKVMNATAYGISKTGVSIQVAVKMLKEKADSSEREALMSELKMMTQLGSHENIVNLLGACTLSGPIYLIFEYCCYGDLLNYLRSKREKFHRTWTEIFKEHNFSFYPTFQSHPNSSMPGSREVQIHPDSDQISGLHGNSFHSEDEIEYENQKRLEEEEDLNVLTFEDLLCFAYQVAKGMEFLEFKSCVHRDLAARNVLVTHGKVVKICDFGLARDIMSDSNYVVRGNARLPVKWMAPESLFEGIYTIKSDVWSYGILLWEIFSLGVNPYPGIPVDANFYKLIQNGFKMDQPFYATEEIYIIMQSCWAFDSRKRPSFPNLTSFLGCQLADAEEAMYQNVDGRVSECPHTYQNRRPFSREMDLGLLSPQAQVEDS

[9] = molecular target: ALK tyrosine kinase receptor (Homo sapiens, UniProt Q9UM73); type: functional;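 also: ALK tested as one member of a kinase panel screen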
Sequence of ALK tyrosine kinase receptor (Q9UM73 whole entry): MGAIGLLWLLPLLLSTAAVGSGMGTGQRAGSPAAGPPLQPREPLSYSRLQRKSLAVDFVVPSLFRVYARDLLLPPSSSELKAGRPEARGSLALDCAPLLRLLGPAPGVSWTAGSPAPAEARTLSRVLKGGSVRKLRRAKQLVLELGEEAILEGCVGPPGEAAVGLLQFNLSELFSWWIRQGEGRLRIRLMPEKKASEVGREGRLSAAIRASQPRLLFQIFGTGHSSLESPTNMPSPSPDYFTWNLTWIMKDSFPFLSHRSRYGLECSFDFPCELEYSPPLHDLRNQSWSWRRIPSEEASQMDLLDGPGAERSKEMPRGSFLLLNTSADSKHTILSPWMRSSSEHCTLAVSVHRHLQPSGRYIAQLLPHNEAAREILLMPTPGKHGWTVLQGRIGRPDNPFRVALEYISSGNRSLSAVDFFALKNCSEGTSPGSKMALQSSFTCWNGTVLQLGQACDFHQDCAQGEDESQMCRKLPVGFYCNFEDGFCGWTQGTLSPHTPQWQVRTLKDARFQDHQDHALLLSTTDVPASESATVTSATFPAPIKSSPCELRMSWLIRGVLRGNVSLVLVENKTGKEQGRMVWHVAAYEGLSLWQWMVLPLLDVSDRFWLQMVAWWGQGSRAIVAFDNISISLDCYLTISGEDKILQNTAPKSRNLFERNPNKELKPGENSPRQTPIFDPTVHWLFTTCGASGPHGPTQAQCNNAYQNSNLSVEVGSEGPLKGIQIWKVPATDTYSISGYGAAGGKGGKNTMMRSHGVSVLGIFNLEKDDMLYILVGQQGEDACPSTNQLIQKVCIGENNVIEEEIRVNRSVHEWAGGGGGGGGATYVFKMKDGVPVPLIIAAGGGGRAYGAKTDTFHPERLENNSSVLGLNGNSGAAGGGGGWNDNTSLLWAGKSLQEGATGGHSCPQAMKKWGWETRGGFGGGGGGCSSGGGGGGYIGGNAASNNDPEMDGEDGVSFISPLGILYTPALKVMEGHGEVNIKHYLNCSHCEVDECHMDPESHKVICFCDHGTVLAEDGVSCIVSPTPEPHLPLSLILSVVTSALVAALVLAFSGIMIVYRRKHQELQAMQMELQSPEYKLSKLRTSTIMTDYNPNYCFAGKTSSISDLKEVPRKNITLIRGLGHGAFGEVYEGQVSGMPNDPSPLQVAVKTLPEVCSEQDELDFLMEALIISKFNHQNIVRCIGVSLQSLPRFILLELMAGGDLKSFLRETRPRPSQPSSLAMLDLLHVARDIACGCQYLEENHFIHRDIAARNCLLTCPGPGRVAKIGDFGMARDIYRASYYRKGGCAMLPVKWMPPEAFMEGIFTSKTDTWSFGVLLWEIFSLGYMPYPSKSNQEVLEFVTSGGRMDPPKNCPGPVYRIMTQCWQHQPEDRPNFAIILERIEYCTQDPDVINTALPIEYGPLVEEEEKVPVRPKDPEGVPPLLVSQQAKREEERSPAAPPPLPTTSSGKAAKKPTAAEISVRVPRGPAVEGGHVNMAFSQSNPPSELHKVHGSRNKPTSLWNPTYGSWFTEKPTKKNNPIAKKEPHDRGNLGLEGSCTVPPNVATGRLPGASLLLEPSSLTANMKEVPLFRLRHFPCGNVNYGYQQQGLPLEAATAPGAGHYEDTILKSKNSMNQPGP

[10] = molecular target: Vascular endothelial growth factor receptor 1 (Homo sapiens, UniProt P17948); type: functional;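 also: measured within a kinome-wide profiling panel, FLT1 as the panel member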
[11] = molecular target: Serine/threonine-protein kinase PLK1 (Homo sapiens, UniProt P53350); type: functional;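 also: PLK1 measured as one member of a kinome-wide profiling panel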
Sequence of Serine/threonine-protein kinase PLK1 (P53350 whole entry): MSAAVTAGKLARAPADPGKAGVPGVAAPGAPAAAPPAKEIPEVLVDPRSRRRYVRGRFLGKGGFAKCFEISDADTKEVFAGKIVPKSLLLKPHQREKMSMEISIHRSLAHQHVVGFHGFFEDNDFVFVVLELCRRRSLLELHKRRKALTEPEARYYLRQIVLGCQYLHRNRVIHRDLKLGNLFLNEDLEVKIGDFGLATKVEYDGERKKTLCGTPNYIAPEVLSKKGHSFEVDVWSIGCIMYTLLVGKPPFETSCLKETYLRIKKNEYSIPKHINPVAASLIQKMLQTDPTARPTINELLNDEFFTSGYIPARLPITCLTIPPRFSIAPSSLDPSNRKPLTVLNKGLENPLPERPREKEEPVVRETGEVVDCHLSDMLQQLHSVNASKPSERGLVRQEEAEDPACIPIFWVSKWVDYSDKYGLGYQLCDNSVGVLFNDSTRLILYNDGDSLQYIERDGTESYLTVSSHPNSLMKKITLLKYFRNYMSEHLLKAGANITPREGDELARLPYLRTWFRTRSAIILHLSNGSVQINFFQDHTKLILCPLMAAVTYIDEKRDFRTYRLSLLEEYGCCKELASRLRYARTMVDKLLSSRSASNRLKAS

[12] = molecular target: Serine/threonine-protein kinase Nek4 (Homo sapiens, UniProt P51957); type: functional
[13] = molecular target: Testis-specific serine/threonine-protein kinase 2 (Homo sapiens, UniProt Q96PF2); type: functional;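 also: part of the Navigating the Kinome panel, target entry STK22B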
Sequence of Testis-specific serine/threonine-protein kinase 2 (Q96PF2 whole entry): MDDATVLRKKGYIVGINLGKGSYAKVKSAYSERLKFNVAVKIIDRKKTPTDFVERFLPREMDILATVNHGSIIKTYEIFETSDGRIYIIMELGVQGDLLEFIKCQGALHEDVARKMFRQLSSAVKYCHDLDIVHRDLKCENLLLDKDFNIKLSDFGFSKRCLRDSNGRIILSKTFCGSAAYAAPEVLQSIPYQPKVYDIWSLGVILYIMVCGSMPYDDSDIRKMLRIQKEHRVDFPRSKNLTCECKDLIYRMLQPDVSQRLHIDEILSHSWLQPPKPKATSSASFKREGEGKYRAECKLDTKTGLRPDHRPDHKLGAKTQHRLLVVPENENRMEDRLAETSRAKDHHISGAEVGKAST

[14] = molecular target: Vascular endothelial growth factor receptor 2 (Homo sapiens, UniProt P35968); type: functional
Activin receptor type-1 = Activin receptor type-1 (Homo sapiens, UniProt Q04771); experiment: Navigating the Kinome. Panel member name: ACVR1; type: functional
[15] = molecular target: Casein kinase II subunit alpha (Homo sapiens, UniProt P68400); type: functional
Sequence of Casein kinase II subunit alpha (P68400 whole entry): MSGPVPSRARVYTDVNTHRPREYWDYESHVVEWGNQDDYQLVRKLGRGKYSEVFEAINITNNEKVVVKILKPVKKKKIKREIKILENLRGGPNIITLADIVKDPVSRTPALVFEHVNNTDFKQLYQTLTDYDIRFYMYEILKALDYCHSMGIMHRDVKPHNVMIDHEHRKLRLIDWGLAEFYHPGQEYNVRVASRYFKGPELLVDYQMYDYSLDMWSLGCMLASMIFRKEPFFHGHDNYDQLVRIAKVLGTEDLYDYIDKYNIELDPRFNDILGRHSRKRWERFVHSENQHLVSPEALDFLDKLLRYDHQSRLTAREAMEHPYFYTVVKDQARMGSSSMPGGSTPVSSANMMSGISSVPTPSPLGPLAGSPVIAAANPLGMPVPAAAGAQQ

[16] = molecular target: Tyrosine-protein kinase JAK3 (Homo sapiens, UniProt P52333); type: functional
[17] = molecular target: Tyrosine-protein kinase JAK2 (Homo sapiens, UniProt O60674); type: functional;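 also: JAK2 tested as one member of a kinase panel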
[18] = molecular target: Macrophage-stimulating protein receptor (Homo sapiens, UniProt Q04912); experiment: Navigating the Kinome. Panel member name: MST1R; type: functional
Aurora kinase B = Aurora kinase B (Homo sapiens, UniProt Q96GD4); type: functional
[19] = molecular target: Glycogen synthase kinase-3 alpha (Homo sapiens, UniProt P49840); type: functional;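 also: GSK3A result taken from a broad kinome-wide kinase panel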
Sequence of Glycogen synthase kinase-3 alpha (P49840 whole entry, canonical isoform): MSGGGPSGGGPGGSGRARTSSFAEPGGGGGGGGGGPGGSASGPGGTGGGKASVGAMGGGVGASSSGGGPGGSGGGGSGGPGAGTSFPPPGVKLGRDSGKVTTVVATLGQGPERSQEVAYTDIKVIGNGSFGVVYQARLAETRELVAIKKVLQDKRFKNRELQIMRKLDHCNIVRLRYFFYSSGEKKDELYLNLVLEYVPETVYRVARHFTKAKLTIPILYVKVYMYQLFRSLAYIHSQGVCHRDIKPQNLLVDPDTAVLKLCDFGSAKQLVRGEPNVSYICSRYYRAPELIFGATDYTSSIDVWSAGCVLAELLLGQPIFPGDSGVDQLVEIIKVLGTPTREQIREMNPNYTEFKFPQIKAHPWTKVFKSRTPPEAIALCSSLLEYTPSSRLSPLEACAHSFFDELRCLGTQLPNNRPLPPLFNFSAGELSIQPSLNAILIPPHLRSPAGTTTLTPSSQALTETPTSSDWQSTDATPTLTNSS

[20] = molecular target: Casein kinase I isoform gamma-1 (Homo sapiens, UniProt Q9HCP0); type: functional;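 also: measured as the CSNK1G1 member of a kinome profiling panel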
[21] = molecular target: Induced myeloid leukemia cell differentiation protein Mcl-1 (Homo sapiens, UniProt Q07820); type: functional

`NS(=O)(=O)c1ccc(NC2=CC(=O)C(=O)c3ccccc32)cc1` was tested. Which IC50 [1] did it give?
The IC50 was > 67000 nM (not active).

What about the EC50 [2] of the same molecule?
Its EC50 is > 195000 nM (not active).

What about the IC50 (Genome polyprotein) of the same molecule?
The IC50 was 39000 nM (active).

What about the CC50 (Vero) of the same molecule?
Its CC50 is 11800 nM (active).

And the IC50 (SUMO-activating enzyme)?
The IC50 was 9540 nM (active).

`Clc1cc(-c2c[nH]c3ncccc23)nc(NC2CCCCC2)n1` was tested. Which Ki [3] did it give?
Its Ki is > 7940 nM (inactive).

What about the Ki [4] of the same molecule?
The Ki was 3.98 nM (active).

And the Ki [5]?
Its Ki is > 1580 nM (inactive).

What about the Ki [6] of the same molecule?
The Ki was > 3980 nM (inactive).

And the Ki [7]?
Its Ki is > 1580 nM (inactive).

What about the Ki [8] of the same molecule?
Its Ki is > 1000 nM (inactive).

And the Ki [9]?
The Ki was > 3980 nM (inactive).

What about the Ki [10] of the same molecule?
The Ki was 398 nM (active).

What about the Ki [11] of the same molecule?
Its Ki is 501 nM (active).

And the Ki [12]?
The Ki was > 6310 nM (inactive).

And the Ki [13]?
The Ki was > 1580 nM (inactive).

And the Ki [14]?
Its Ki is 2510 nM (active).

And the Ki (Activin receptor type-1)?
Its Ki is > 3980 nM (inactive).

And the Ki [15]?
The Ki was 398 nM (active).

What about the Ki [16] of the same molecule?
The Ki was > 3160 nM (inactive).

And the Ki [17]?
The Ki was > 2510 nM (inactive).

And the Ki [18]?
The Ki was > 3980 nM (inactive).

What about the Ki (Aurora kinase B) of the same molecule?
The Ki was > 6310 nM (inactive).

And the Ki [19]?
The Ki was 794 nM (active).

And the Ki [20]?
Its Ki is 126 nM (active).

With `O=C(N/N=C/c1ccc(O)cc1O)c1ccc(CN2C(=O)c3cccc4cccc2c34)cc1` as the molecule, how does the IC50 [21] read?
The IC50 was 1470 nM (active).
